# Results published in the SangsterLogP compilation.
# Experiment: method code SF, from DOI: 10.1016/j.ejps.2012.10.019, PMID: 23131797
# Conditions: pH 5.0
row,logD,SMILES
1,4.34,CCOC(=O)N1CCN(C(=O)/C=C/c2ccc(Cl)c(Cl)c2)CC1
2,4.46,O=C(Nc1ccc(S(=O)(=O)c2ccc(NC(=O)c3cccs3)cc2)cc1)c1cccs1
3,4.92,O=C1CCCC2=C1C(c1ccc(OCc3ccccc3F)cc1)C1=C(CCCC1=O)O2
4,5.16,O=C(COc1ccc(C(F)(F)F)cc1[N+](=O)[O-])Nc1ccccc1Br
5,2.82,CCCn1c(=O)c(Br)cn(-c2ccccc2C)c1=O
6,4.99,O=C(OCC(=O)N(C1CCCCC1)C1CCCCC1)c1ccc(Cl)nc1

# Same assay, conditions: pH 6.5
row,logD,SMILES
1,4.43,CC(=O)N1CC(=O)N(CC(=O)N(Cc2ccccc2)c2nc(-c3ccccc3)cs2)C1=S

# Same assay, conditions: pH 7.3
row,logD,SMILES
1,4.09,CC(C)N(C(=O)CSc1nnc(NCc2ccccc2)s1)C(C)C
2,4.35,CCc1ccccc1Nc1nc(N)nc(CSc2nnc(-c3ccc(OC(F)F)cc3)n2N)n1

# Same assay, conditions: pH 10.5
row,logD,SMILES
1,4.92,O=C(c1cc2ccccc2s1)N1CCCN(c2ccc(C(F)(F)F)cn2)CC1
2,2.74,CN(C)c1nc(N)nc(COC(=O)c2ccc(-n3cnnc3)cc2)n1
3,4.55,Cc1ccccc1N1C(=O)c2ccc(C(=O)OCC(=O)c3c(N)n(C)c(=O)n(C)c3=O)cc2C1=O
